Like-named read-outs stand apart in the source and are kept apart here.
Target: T1, human M2 receptor (Homo sapiens, UniProt P08172)
T1 sequence (P08172 1-466): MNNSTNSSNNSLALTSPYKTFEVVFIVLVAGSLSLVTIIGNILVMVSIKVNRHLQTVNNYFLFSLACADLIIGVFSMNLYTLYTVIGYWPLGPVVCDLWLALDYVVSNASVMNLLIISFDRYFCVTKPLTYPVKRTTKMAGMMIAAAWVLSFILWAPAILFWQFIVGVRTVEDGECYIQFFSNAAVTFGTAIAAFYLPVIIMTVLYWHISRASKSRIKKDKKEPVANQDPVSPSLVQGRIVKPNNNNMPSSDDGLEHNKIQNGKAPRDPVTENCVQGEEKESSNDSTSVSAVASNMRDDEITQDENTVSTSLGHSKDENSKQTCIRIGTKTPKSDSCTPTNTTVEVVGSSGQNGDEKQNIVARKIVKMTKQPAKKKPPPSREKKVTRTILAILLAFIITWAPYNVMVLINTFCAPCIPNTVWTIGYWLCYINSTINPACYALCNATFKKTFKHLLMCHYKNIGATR
Details: for Emax: read-out: Efficiency, boosting of the acetylcholine effect at EC20 acetylcholine concentration; for Efficiency: boosting of the acetylcholine effect at EC20 acetylcholine concentration

[1] = Receptor activity EC50, allosteric potency at EC20 acetylcholine, M2-GIRK1/4 reporter cells, in some cases mean of two or more determinations
[2] = Receptor activity EC50, M2-GIRK1/4 activation test, acetylcholine at EC20, allosteric potency, in some cases mean values from two or more determinations

Structure (SMILES) | EC50 [1] | Emax (M2-GIRK1/4 reporter cells) | EC50 [2] | Efficiency (M2-GIRK1/4 reporter cells)
CC[C@H](NC(=O)c1cn(-c2c(F)cc(F)cc2Cl)c2nc(N3CC4CC4(O)C3)ccc2c1=O)C(F)(F)F (mixture of isomers) [Example 413, 1-(2-Chloro-4,6-difluorophenyl)-7-[1-hydroxy-3-azabicyclo[3.1.0]hex-3-yl]-4-oxo-N-[(2S)-1,1,1-trifluorobutan-2-yl]-1,4-dihydro-1,8-naphthyridine-3-carboxamide] | 10 nM | 100% |  | 
O=C(NC12CC3CC(CC(C3)C1)C2)c1cn(-c2ccc(F)cc2F)c2nc(N3CCS(=O)(=O)C3)ccc2c1=O [Example 130, 1-(2,4-Difluorophenyl)-7-(1,1-dioxido-1,3-thiazolidin-3-yl)-4-oxo-N-(tricyclo[3.3.1.1^3,7]dec-1-yl)-1,4-dihydro-1,8-naphthyridine-3-carboxamide] |  |  | 113 nM | 
CN1CCN(c2ccc3c(=O)c(C(=O)N[C@@H](C4CC4)C(F)(F)F)cn(-c4c(F)cc(F)cc4F)c3n2)CC1 [Example 490] | 103 nM | 91.5% |  | 
CNc1ccc2c(=O)c(C(=O)NC34CC5CC(C3)C(F)(F)C(C5)C4)cn(-c3ccc(F)cc3F)c2n1 [Example 161] |  |  | 137 nM | 
O=C(N[C@H](C1CC1)C(F)(F)F)c1cn(-c2c(Cl)cc(F)cc2Cl)c2nc(N3CCNC3=O)ccc2c1=O [Example 647, N-[(1R)-1-Cyclopropyl-2,2,2-trifluoroethyl]-1-(2,6-dichloro-4-fluorophenyl)-4-oxo-7-(2-oxoimidazolidin-1-yl)-1,4-dihydro-1,8-naphthyridine-3-carboxamide] |  | 92% |  | 
O=C(NC(c1ccccc1Cl)C(F)(F)F)c1cn(-c2ccccc2F)c2nc(N3CCC(O)C3=O)ccc2c1=O (single isomer, unassigned) [Example 291] |  |  | 673 nM | 
O=C(N[C@@H](C1CC1)C(F)(F)F)c1cn(-c2c(F)cc(F)cc2F)c2nc(N3CCOC(CO)C3)ccc2c1=O (single isomer, unassigned) [Example 465, N-[(1 S)-1-Cyclopropyl-2,2,2-trifluoroethyl]-7-[2-(hydroxymethyl)morpholin-4-yl]-4-oxo-1-(2,4,6-trifluorophenyl)-1,4-dihydro-1,8-naphthyridine-3-carboxamide] | 76 nM |  |  | 89.0%
O=C(NC(c1c(F)cccc1F)C(F)(F)F)c1cn(-c2ccc(F)cc2F)c2nc(N3CCCC(O)C3=O)ccc2c1=O (stereo not drawn) [Example 247, 1-(2,4-Difluorophenyl)-N-[1-(2,6-difluorophenyl)-2,2,2-trifluoroethyl]-7-[3-hydroxy-2-oxopiperidin-1-yl]-4-oxo-1,4-dihydro-1,8-naphthyridine-3-carboxamide] |  |  | 160 nM | 
CC[C@H](NC(=O)c1cn(-c2c(F)cc(F)cc2F)c2nc(N3CCC(CO)(CO)CC3)ccc2c1=O)C(F)(F)F [Example 500] | 76 nM | 100% |  | 
CN(CCF)c1ccc2c(=O)c(C(=O)NC34CC5CC(CC(C5)C3)C4)cn(-c3ccc(F)cc3F)c2n1 [Example 101, 1-(2,4-Difluorophenyl)-7-[(2-fluoroethyl)(methyl)amino]-4-oxo-N-(tricyclo[3.3.1.1^3,7]dec-1-yl)-1,4-dihydro-1,8-naphthyridine-3-carboxamide] |  |  | 26 nM | 
O=C(NC12CC3CC(CC(C3)C1)C2)c1cn(-c2ccc(F)cc2F)c2nc(N3CCCCC3=O)ccc2c1=O [Example 165, 1-(2,4-Difluorophenyl)-4-oxo-7-(2-oxopiperidin-1-yl)-N-(tricyclo[3.3.1.1^3,7]dec-1-yl)-1,4-dihydro-1,8-naphthyridine-3-carboxamide] |  |  | 11 nM | 
O=C(NC12CC3CC(CC(C3)C1)C2)c1cn(-c2ccc(F)cc2F)c2nc(N3CCCCC3)ccc2c1=O [Example 8, 1-(2,4-Difluorophenyl)-4-oxo-7-(piperidin-1-yl)-N-(tricyclo[3.3.1.1^3,7]dec-1-yl)-1,4-dihydro-1,8-naphthyridine-3-carboxamide] |  |  | 38 nM | 
COC1CN(c2ccc3c(=O)c(C(=O)N[C@@H](C4CC4)C(F)(F)F)cn(-c4c(F)cc(F)cc4F)c3n2)CC1O (mixture of isomers) [Example 582, N-[(1 S)-1-Cyclopropyl-2,2,2-trifluoroethyl]-7-[trans-3-hydroxy-4-methoxypyrrolidin-1-yl]-4-oxo-1-(2,4,6-trifluorophenyl)-1,4-dihydro-1,8-naphthyridine-3-carboxamide] | 14 nM | 100% |  | 
Cc1cccc(C)c1CNC(=O)c1cn(-c2ccc(F)cc2F)c2nc(N(C)C)ccc2c1=O [Example 51, 1-(2,4-Difluorophenyl)-7-(dimethylamino)-N-(2,6-dimethylbenzyl)-4-oxo-1,4-dihydro-1,8-naphthyridine-3-carboxamide] |  |  | 100 nM | 
O=C(NC1(C(F)(F)F)CCC1)c1cn(-c2c(F)cc(F)cc2F)c2nc(N3C[C@@H](O)[C@H](O)C3)ccc2c1=O [Example 625, 7-[(3R,4R)-3,4-Dihydroxypyrrolidin-1-yl]-4-oxo-N-[1-(trifluoromethyl)cyclobutyl]-1-(2,4,6-trifluorophenyl)-1,4-dihydro-1,8-naphthyridine-3-carboxamide] | 43 nM | 100% |  | 
CC(C)C[C@H](NC(=O)c1cn(-c2c(F)cc(F)cc2F)c2nc(N3C[C@@H](O)[C@H](O)C3)ccc2c1=O)C(F)(F)F [Example 559, 7-[(3R,4R)-3,4-Dihydroxypyrrolidin-1-yl]-4-oxo-N-[(2S)-1,1,1-trifluoro-4-methylpentan-2-yl]-1-(2,4,6-trifluorophenyl)-1,4-dihydro-1,8-naphthyridine-3-carboxamide] | 10 nM | 99% |  | 
O=C(NC12CC3CC(CC(C3)C1)C2)c1cn(-c2ccc(F)cc2F)c2nc(N3CCOC[C@H]3CO)ccc2c1=O [Example 117, 1-(2,4-Difluorophenyl)-7-[(3R)-3-(hydroxymethyl)morpholin-4-yl]-4-oxo-N-(tricyclo[3.3.1.1^3,7]dec-1-yl)-1,4-dihydro-1,8-naphthyridine-3-carboxamide] |  |  | 89 nM | 

More lines, now with the values ahead:

EC50 [1] | Emax (M2-GIRK1/4 reporter cells) | EC50 [2] | Efficiency (M2-GIRK1/4 reporter cells) | Structure (SMILES)
9 nM | 88% |  |  | CC[C@@H](NC(=O)c1cn(-c2c(F)cc(F)cc2Cl)c2nc(N3CC4CC4(O)C3)ccc2c1=O)C(F)(F)F (stereo partly drawn) [Example 406, 1-(2-Chloro-4,6-difluorophenyl)-7-[1-hydroxy-3-azabicyclo[3.1.0]hex-3-yl]-4-oxo-N-[(2R)-1,1,1-trifluorobutan-2-yl]-1,4-dihydro-1,8-naphthyridine-3-carboxamide]
140 nM | 83.5% |  |  | O=C(NC12CC(C1)C2)c1cn(-c2c(F)cc(F)cc2F)c2nc(N3CC(O)C4(CC4)C3)ccc2c1=O (single isomer, unassigned) [Example 627, N-(Bicyclo[1.1.1]pent-1-yl)-7-[7-hydroxy-5-azaspiro[2.4]hept-5-yl]-4-oxo-1-(2,4,6-trifluorophenyl)-1,4-dihydro-1,8-naphthyridine-3-carboxamide]
 |  | 28 nM |  | C[C@H](NC(=O)c1cn(-c2c(F)cc(F)cc2F)c2nc(N3CC4CC4(O)C3)ccc2c1=O)C(F)(F)F (mixture of isomers) [Example 316, 7-[1-Hydroxy-3-azabicyclo[3.1.0]hex-3-yl]-4-oxo-1-(2,4,6-trifluorophenyl)-N-[(2S)-1,1,1-trifluoropropan-2-yl]-1,4-dihydro-1,8-naphthyridine-3-carboxamide]
72 nM |  |  | 86.0% | CC[C@@H](NC(=O)c1cn(-c2ccc(F)cc2F)c2nc(N3C(=O)CCC3C)ccc2c1=O)C(F)(F)F (single isomer, unassigned) [Example 428]
25 nM | 89.5% |  |  | COC(=O)N1CCN(c2ccc3c(=O)c(C(=O)N[C@@H](C4CC4)C(F)(F)F)cn(-c4c(F)cc(F)cc4F)c3n2)CC1 [Example 603, Methyl 4-[6-{[(1 S)-1-cyclopropyl-2,2,2-trifluoroethyl]carbamoyl}-5-oxo-8-(2,4,6-trifluorophenyl)-5,8-dihydro-1,8-naphthyridin-2-yl]piperazine-1-carboxylate]
49 nM | 100% |  |  | O=C(NC1(CC(F)(F)F)CC1)c1cn(-c2c(F)cc(F)cc2F)c2nc(N3C[C@@H](O)CC3=O)ccc2c1=O [Example 632, 7-[(4S)-4-Hydroxy-2-oxopyrrolidin-1-yl]-4-oxo-N-[1-(2,2,2-trifluoroethyl)cyclopropyl]-1-(2,4,6-trifluorophenyl)-1,4-dihydro-1,8-naphthyridine-3-carboxamide]
 |  | 73 nM |  | CC[C@@H](NC(=O)c1cn(-c2c(F)cccc2F)c2nc(N3CCC(O)C3=O)ccc2c1=O)C(F)(F)F (single isomer, unassigned) [Example 293]
21 nM | 100% |  |  | CCC(COC(F)(F)F)NC(=O)c1cn(-c2c(F)cc(F)cc2F)c2nc(N3C[C@@H](O)CC3=O)ccc2c1=O (single isomer, unassigned) [Example 411]
 |  | 110 nM |  | CN(C)c1ccc2c(=O)c(C(=O)NC(c3ccccc3Cl)C(F)(F)F)cn(-c3ccc(F)cc3F)c2n1 (racemic) [Example 48, rac-N-[1-(2-Chlorophenyl)-2,2,2-trifluoroethyl]-1-(2,4-difluorophenyl)-7-(dimethylamino)-4-oxo-1,4-dihydro-1,8-naphthyridine-3-carboxamide]

Reference: patent US20190367516A1 (Bayer Pharma Aktiengesellschaft, priority 2015, published 2019)
